In ChEMBL document CHEMBL1201862, “PubChem BioAssay data set” (2004):
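All cell lines were grown in 96-well plates and treated with compound for 48 hours. GI50: concentration for 50% inhibition of growth.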 Activity calls are given as the source filed them. Rule as the data show it: active = GI50 up to about 1.1 µM and inactive = higher.

Tests used:
Experiment in all cases: NCI-60 cell line screen, 48 h
HCT-116 = tested on: HCT-116
NCI-H460 = tested on: NCI-H460
HCT-15 = tested on: HCT-15
SR = tested on: SR
K562 = tested on: K562
786-0 = tested on: 786-0
NCI-H23 = tested on: NCI-H23
SK-MEL-2 = tested on: SK-MEL-2
UO-31 = tested on: UO-31
Malme-3M = tested on: Malme-3M
HL-60 = tested on: HL-60
IGROV-1 = tested on: IGROV-1
OVCAR-5 = tested on: OVCAR-5
OVCAR-3 = tested on: OVCAR-3
SK-MEL-5 = tested on: SK-MEL-5
MDA-MB-435 = tested on: MDA-MB-435
MDA-N = tested on: MDA-N
PC-3 = tested on: PC-3
MCF7 = tested on: MCF7

Row | Structure (SMILES) | GI50 (HCT-116) | GI50 (NCI-H460) | GI50 (HCT-15) [µM] | GI50 (SR) | GI50 (K562) | GI50 (786-0) | GI50 (NCI-H23) | GI50 (SK-MEL-2) | GI50 (UO-31) | GI50 (Malme-3M) | GI50 (HL-60) | GI50 (IGROV-1) | GI50 (OVCAR-5) | GI50 (OVCAR-3) | GI50 (SK-MEL-5) | GI50 (MDA-MB-435) | GI50 (MDA-N) | GI50 (PC-3) | GI50 (MCF7)
1 | CCOC(=O)c1ccc(O)cc1 [ETHYLPARABEN] | > 100 µM (inactive) | > 100 µM (inactive) | > 100 | > 100 µM (inactive) | > 100 µM (inactive) | > 100 µM (inactive) | > 100 µM (inactive) | > 100 µM (inactive) | > 100 µM (inactive) | > 100 µM (inactive) | > 100 µM (inactive) | > 100 µM (inactive) | > 100 µM (inactive) |  |  |  |  |  | 
2 | COc1ccc(-c2ccc(CC(=O)O)cc2)cc1OC | > 100 µM (inactive) | > 100 µM (inactive) |  | > 100 µM (inactive) | > 100 µM (inactive) | > 100 µM (inactive) | > 100 µM (inactive) | > 100 µM (inactive) | > 100 µM (inactive) | > 100 µM (inactive) | > 100 µM (inactive) |  | > 100 µM (inactive) | > 100 µM (inactive) | > 100 µM (inactive) |  |  |  | 
3 | COc1ccc(C2=NN(C(=O)c3cccnc3)C(O)(c3cc(F)c(Cl)cc3Cl)C2)cc1OC (stereo unspecified) | 14.8 µM (inactive) | 15.2 µM (inactive) | 14.8 | 7.28 µM (inactive) | 17.4 µM (inactive) | 22 µM (inactive) | 20.4 µM (inactive) | 14.8 µM (inactive) | 17.5 µM (inactive) | 22.6 µM (inactive) | 12.8 µM (inactive) | 8.11 µM (inactive) | 30.2 µM (inactive) | 11.5 µM (inactive) | 12.1 µM (inactive) | 15.2 µM (inactive) | 21.3 µM (inactive) | 12.6 µM (inactive) | 
4 | ClC1CCC2OOC1O2 (stereo unspecified) | 61.1 µM (inactive) | > 100 µM (inactive) | 87.3 | > 100 µM (inactive) | > 100 µM (inactive) | > 100 µM (inactive) | > 100 µM (inactive) | > 100 µM (inactive) | > 100 µM (inactive) | > 100 µM (inactive) | 32.2 µM (inactive) | > 100 µM (inactive) | > 100 µM (inactive) | > 100 µM (inactive) | > 100 µM (inactive) |  |  |  | 
5 | COC(=O)Nc1nc2ccc(S(=O)(=O)SC)cc2[nH]1 | 4.68 µM (inactive) | 5.2 µM (inactive) | 3.89 | 3.72 µM (inactive) | 4.86 µM (inactive) | 5.09 µM (inactive) |  | 7.19 µM (inactive) |  | 9.89 µM (inactive) | 2.38 µM (inactive) | 3.37 µM (inactive) | 11.6 µM (inactive) | 4.86 µM (inactive) | 5.28 µM (inactive) | 2.69 µM (inactive) |  | 4.42 µM (inactive) | 4.94 µM (inactive)
6 | CC(=O)O[C@]1(C(C)=O)CC[C@H]2[C@@H]3C[C@H](C)C4=CC(=O)C=C[C@]4(C)[C@@]3(F)[C@@H](O)C[C@@]21C [FLUOROMETHOLONE ACETATE] | > 100 µM (inactive) | 76.9 µM (inactive) | 19.6 | 24.7 µM (inactive) | 48.1 µM (inactive) | > 100 µM (inactive) | 63.8 µM (inactive) |  | 17.1 µM (inactive) | 24.9 µM (inactive) | 37.6 µM (inactive) | 69.5 µM (inactive) | 0.149 µM (active) | > 100 µM (inactive) | 28.9 µM (inactive) |  |  |  | 
7 | Cc1ccc(/C=C2\Cc3cccc(C)c3C2=O)c(C(=O)O)c1 | 72.9 µM (inactive) | > 100 µM (inactive) | 39.2 | 90.4 µM (inactive) | 99.8 µM (inactive) | > 100 µM (inactive) | > 100 µM (inactive) |  | 17.3 µM (inactive) | > 100 µM (inactive) | 85.7 µM (inactive) | 96.6 µM (inactive) | > 100 µM (inactive) | 94.2 µM (inactive) | 71.1 µM (inactive) |  | > 100 µM (inactive) | 99.5 µM (inactive) | > 10 µM (inactive)
8 | O=C1c2ccccc2C(=O)C1(O)c1c[nH]c2ccccc12 | > 100 µM (inactive) | > 100 µM (inactive) | > 100 | > 100 µM (inactive) | > 100 µM (inactive) | > 100 µM (inactive) | > 100 µM (inactive) | > 100 µM (inactive) | > 100 µM (inactive) | > 100 µM (inactive) | > 100 µM (inactive) | > 100 µM (inactive) | > 100 µM (inactive) | > 100 µM (inactive) |  |  |  |  | 
9 | OCCN(CCO)c1ncnc2[nH]cnc12 | > 100 µM (inactive) | > 100 µM (inactive) | > 100 |  | > 100 µM (inactive) | > 100 µM (inactive) | > 100 µM (inactive) |  | 63.4 µM (inactive) | > 100 µM (inactive) |  | > 100 µM (inactive) | 60.8 µM (inactive) | > 100 µM (inactive) | > 100 µM (inactive) | > 100 µM (inactive) | > 100 µM (inactive) | > 100 µM (inactive) | > 100 µM (inactive)
10 | c1ccc2c(CSCc3cccc4ccccc34)cccc2c1 | 57.5 µM (inactive) | 43.4 µM (inactive) | 1.91 | 28.6 µM (inactive) | 76.7 µM (inactive) | > 100 µM (inactive) | > 100 µM (inactive) | > 100 µM (inactive) | > 100 µM (inactive) | 58.9 µM (inactive) |  | 38.5 µM (inactive) | > 100 µM (inactive) | > 100 µM (inactive) | 88.7 µM (inactive) | > 100 µM (inactive) | > 100 µM (inactive) | 43.4 µM (inactive) | 
11 | CC(=O)C1C(=O)C(=O)N(c2ccc(Cl)c(Cl)c2)C1=O (stereo unspecified) | > 100 µM (inactive) | > 100 µM (inactive) | > 100 |  |  | > 100 µM (inactive) | > 100 µM (inactive) | > 100 µM (inactive) | 99.3 µM (inactive) |  | > 100 µM (inactive) | > 100 µM (inactive) | > 100 µM (inactive) | > 100 µM (inactive) | > 100 µM (inactive) | > 100 µM (inactive) | > 100 µM (inactive) | > 100 µM (inactive) | > 100 µM (inactive)
12 | O=C(/C=C/c1cccs1)c1ccc(C(=O)/C=C/c2cccs2)cc1 |  | > 100 µM (inactive) | > 100 | > 100 µM (inactive) |  | > 100 µM (inactive) | > 100 µM (inactive) |  | > 100 µM (inactive) | > 100 µM (inactive) |  | > 100 µM (inactive) | > 100 µM (inactive) | > 100 µM (inactive) |  | > 100 µM (inactive) |  | > 100 µM (inactive) | 
13 | COC(=O)[C@@H](Nc1ccccc1)[C@@]1(C(=O)OC)SC12c1ccccc1-c1ccccc12 | 12.8 µM (inactive) |  | 23.9 |  | 56.4 µM (inactive) | 29.4 µM (inactive) | > 100 µM (inactive) | 74.6 µM (inactive) | 42.3 µM (inactive) | 49.7 µM (inactive) | > 100 µM (inactive) | > 100 µM (inactive) | > 100 µM (inactive) | 43.2 µM (inactive) | 41.4 µM (inactive) | 54.8 µM (inactive) | 61.1 µM (inactive) | 35 µM (inactive) | 34.2 µM (inactive)
14 | COC1C(O)C(C)OC(O[C@@H]2C[C@H]3CC[C@@H]4[C@H](CC[C@]5(C)[C@@H](C6=CC(=O)OC6)CC[C@]45O)[C@@]3(C)[C@H](O)C2)C1O (stereo partly specified) | < 0.0225 µM (active) | 0.0347 µM (active) | 0.0826 | 0.0766 µM (active) | 0.0785 µM (active) | 0.149 µM (active) | 0.0262 µM (active) | 0.114 µM (active) |  | < 0.0396 µM (active) | < 0.04 µM (active) | 0.145 µM (active) | 0.114 µM (active) | < 0.0258 µM (active) | < 0.0258 µM (active) | 0.0883 µM (active) | 0.0166 µM (active) | 0.0755 µM (active) | 
15 | CC1=C(C(=O)Nc2cccc(Cl)c2)C(c2ccccc2F)C(C(=O)Nc2cccc(Cl)c2)=C(C)N1 |  | 6.7 µM (inactive) |  |  | 4.79 µM (inactive) | 13.7 µM (inactive) | 12.2 µM (inactive) | 11.6 µM (inactive) | 7.94 µM (inactive) | 15.8 µM (inactive) | 3.78 µM (inactive) | 15 µM (inactive) | 19.3 µM (inactive) | 10.8 µM (inactive) | 13.5 µM (inactive) |  |  |  | 
16 | N#CC1=C(N)n2c(s/c(=C\c3ccc(Cl)cc3)c2=O)=C(c2nc3ccccc3[nH]2)C1c1ccc(Cl)cc1 (stereo unspecified) | 1.82 µM (inactive) | 1.85 µM (inactive) | 2.06 | 2.17 µM (inactive) | 1.91 µM (inactive) | 2.23 µM (inactive) | 0.426 µM (active) | 2.14 µM (inactive) | 4.45 µM (inactive) | 2.25 µM (inactive) | 2.04 µM (inactive) | 2.28 µM (inactive) | 2.02 µM (inactive) | 1.8 µM (inactive) | 3.02 µM (inactive) |  |  |  | 
17 | CCN(CC)Cc1sc2nc3ccccc3n2c1-c1ccc(OC)cc1 | 26.6 µM (inactive) |  | 12.6 |  | 3.22 µM (inactive) | 35.2 µM (inactive) | 26.9 µM (inactive) | 43.4 µM (inactive) | 5.28 µM (inactive) | 17.2 µM (inactive) | 20.9 µM (inactive) | 25.5 µM (inactive) | 76 µM (inactive) | 21.3 µM (inactive) |  | 3.05 µM (inactive) | 2.61 µM (inactive) | 17.4 µM (inactive) | 23 µM (inactive)
18 | Clc1ccc(C(Cc2ccccc2)c2c(Cl)nc(N3CCNCC3)nc2Cl)cc1 (stereo unspecified) | 8.38 µM (inactive) | 12.1 µM (inactive) | 4.06 | 1.63 µM (inactive) | 3.46 µM (inactive) | 16.5 µM (inactive) | 18.2 µM (inactive) | 16.8 µM (inactive) | 11.3 µM (inactive) | 14.3 µM (inactive) | 2.26 µM (inactive) | 11.9 µM (inactive) | 17.7 µM (inactive) | 14.3 µM (inactive) | 14.7 µM (inactive) | 16.6 µM (inactive) |  | 14.3 µM (inactive) | 5.38 µM (inactive)
